Data taken from PubChem BioAssay (NCI).
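How tested: cells in 96-well plates exposed to compound for 48 hours at five concentrations. GI50 = concentration required for 50% inhibition of growth. The concentration for full growth arrest is given as TGI.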

Legend:
Experiment in all cases: inhibition of tumour cell growth, NCI panel, 48 h
MALME-3M melanoma = system: MALME-3M melanoma
COLO 205 colon = system: COLO 205 colon
SK-OV-3 ovarian = system: SK-OV-3 ovarian
K-562 leukemia = system: K-562 leukemia
A498 renal = system: A498 renal
NCI-H522 lung = system: NCI-H522 lung
OVCAR-3 ovarian = system: OVCAR-3 ovarian
MDA-MB-435 = system: MDA-MB-435
NCI/ADR-RES ovarian = system: NCI/ADR-RES ovarian
MCF7 breast = system: MCF7 breast

SMILES | TGI (MALME-3M melanoma) [µM] | TGI (COLO 205 colon) [µM] | TGI (SK-OV-3 ovarian) [µM] | TGI (K-562 leukemia) [µM] | TGI (A498 renal) [µM] | TGI (NCI-H522 lung) [µM] | TGI (OVCAR-3 ovarian) [µM] | GI50 (MALME-3M melanoma) [µM] | GI50 (MDA-MB-435) [µM] | TGI (MDA-MB-435) [µM] | GI50 (COLO 205 colon) [µM] | GI50 (SK-OV-3 ovarian) [µM] | GI50 (K-562 leukemia) [µM] | GI50 (NCI-H522 lung) [µM] | GI50 (OVCAR-3 ovarian) [µM] | GI50 (NCI/ADR-RES ovarian) [µM] | TGI (NCI/ADR-RES ovarian) [µM] | GI50 (MCF7 breast) [µM] | TGI (MCF7 breast) [µM] | GI50 (A498 renal) [µM]
COC(=O)C(=O)C(C(=O)C(=O)Nc1cccc(C(C)=O)c1)c1nc2ccc([N+](=O)[O-])cc2[nH]c1=O (centres undefined) | > 100 | > 100 | > 100 | > 100 | > 100 | > 100 | – | – | – | – | – | – | – | – | – | – | – | – | – | –
COC(=O)C1=Cc2cc(OC)c(OC)c(OC)c2[C@H](c2cc(OC)c(OC)c(OC)c2)C1C(=O)OC (some centres undefined) | > 100 | > 100 | > 100 | > 100 | > 100 | > 100 | > 100 | – | – | – | – | – | – | – | – | – | – | – | – | –
COC1OC(CO)C(O)C(OC(C)=O)C1NC(=O)N(CCCl)N=O (centres undefined) | > 100 | > 100 | > 100 | > 100 | > 100 | > 100 | > 100 | – | – | – | – | – | – | – | – | – | – | – | – | –
CCOC(=O)C1SC(=Nc2cccc(Cl)c2C)N=C1C (centres undefined) | 42.4 | 38.3 | – | 89 | > 100 | 35.2 | 42.5 | – | – | – | – | – | – | – | – | – | – | – | – | –
C=C=C(C(=O)OC)S(=O)c1ccccc1[N+](=O)[O-] (centres undefined) | > 100 | > 100 | > 100 | > 100 | > 100 | 75.9 | > 100 | – | – | – | – | – | – | – | – | – | – | – | – | –
CCOC(=O)C1=C(C)N=c2s/c(=C\c3ccccc3O)c(=O)n2C1c1ccc(OC)c2ccccc12 (centres undefined) | 19 | > 100 | 27 | 67.2 | – | 44.3 | 7.83 | 4.14 | 13.1 | > 100 | 30.8 | 14 | 11.4 | 13.4 | 3.04 | 7.92 | 43.5 | 4.36 | 32 | –
COc1ccc(OC(C)=O)c2c1CCC=CC2=O | 44.1 | 23 | 31.2 | 18.6 | 37.5 | 3.8 | 29.3 | – | – | – | – | – | – | – | – | – | – | – | – | –
Nc1ccccc1NC(=O)c1ccc(CNc2nccc(-c3cccnc3)n2)cc1 | > 21.7 | 2.06 | > 28.7 | > 100 | – | 1.76 | 4.62 | 0.57 | 0.299 | 1.25 | 0.626 | 1.37 | 0.358 | 0.337 | 1.33 | 0.803 | > 22.9 | 0.716 | > 43.3 | –
COc1cc(/C=C2\C[C@H]3[C@@H]4CC=C5C[C@@H](O)CC[C@]5(C)[C@H]4CC[C@]3(C)[C@H]2O)ccc1OCCN1CCCC1 | – | > 50 | – | 16.5 | > 50 | > 50 | 32 | – | 10.7 | 28.2 | 12.9 | – | 6.86 | 18 | 15.4 | 12.6 | 34.7 | 16.4 | > 50 | 25.1
O=C1/C(=N\O)c2ccccc2S1(=O)=O | > 100 | 73.6 | > 100 | > 100 | > 100 | > 100 | – | – | – | – | – | – | – | – | – | – | – | – | – | –
CCN(CC)CC(C)(C)C(=O)/C=C/c1cccc(/C=C/C(=O)C(C)(C)CN(CC)CC)c1 | 3.11 | 0.821 | 2.79 | > 100 | 2.71 | – | 2.31 | – | – | – | – | – | – | – | – | – | – | – | – | –
